Test system: GNS166 cells
Test: Label-free proteomics differential expression
Format: cell-based, human
Method: Proteomic studies were performed by the Proteomics Facility of the CIC bioGUNE by label-free relative quantification on nLC MS/MS. […] In both approaches, the top 20 enriched terms were plotted and the pathways were clustered using divisive hierarchical clustering based on pairwise Jaccard distances.

## C#CCN(Cc1cc2cc(OCCCN3CCCCC3)ccc2n1S(=O)(=O)c1ccccc1)C(=O)CCCCCCC(=O)NO [DDI]
Protein P60059
  LogFC SC61G_HUMAN: -0.7245
Protein P61619
  Direction S61A1_HUMAN: Down
  LogFC S61A1_HUMAN: -0.5192
Protein P61916 GN=NPC2
  LogFC NPC2_HUMAN: 2.258
Protein P62081
  Direction RS7_HUMAN: Down
  LogFC RS7_HUMAN: -0.4241
Protein P62191
  Direction PRS4_HUMAN: Down
  LogFC PRS4_HUMAN: -0.4147
Protein P62241 GN=RPS8
  LogFC RS8_HUMAN: -0.4178
Protein P62760 GN=VSNL1
  LogFC VISL1_HUMAN: 1.015
Protein P62841 GN=RPS15
  LogFC RS15_HUMAN: -0.6326
Protein P63096 GN=GNAI1
  LogFC GNAI1_HUMAN: 2.584
Protein P63167
  Direction DYL1_HUMAN: Down
  LogFC DYL1_HUMAN: -0.5083
Protein P67809 GN=YBX1
  LogFC YBOX1_HUMAN: -0.6246
Protein P68104
  Direction EF1A1_HUMAN: Down
  LogFC EF1A1_HUMAN: -0.2726
Protein P68431
  Direction H31_HUMAN: Down
  LogFC H31_HUMAN: -4.298
Protein P78344
  Direction IF4G2_HUMAN: Down
  LogFC IF4G2_HUMAN: -0.799
Protein P78347
  Direction GTF2I_HUMAN: Down
  LogFC GTF2I_HUMAN: -2.48
Protein P78504 GN=JAG1
  LogFC JAG1_HUMAN: 1.553
Protein P80404 GN=ABAT
  LogFC GABT_HUMAN: 1.722
Protein P82970 GN=HMGN5
  LogFC HMGN5_HUMAN: 1.669
Protein Q0ZGT2 GN=NEXN
  LogFC NEXN_HUMAN: 1.075
Protein Q2NKX8
  Direction ERC6L_HUMAN: Down
  LogFC ERC6L_HUMAN: -1.52
Protein Q2NL82
  Direction TSR1_HUMAN: Down
  LogFC TSR1_HUMAN: -0.7691
Protein Q2TAL8
  Direction QRIC1_HUMAN: Down
  LogFC QRIC1_HUMAN: -0.7876
Protein Q3YEC7
  Direction RABL6_HUMAN: Down
  LogFC RABL6_HUMAN: -0.9067
Protein Q4VC31 GN=CCDC58
  LogFC CCD58_HUMAN: 2.085
Protein Q5BJD5 GN=TMEM41B
  LogFC TM41B_HUMAN: 1.572
Protein Q5EB52
  Direction MEST_HUMAN: Down
  LogFC MEST_HUMAN: -1.179
Protein Q5J8M3 GN=EMC4
  LogFC EMC4_HUMAN: 0.9113
Protein Q5JVS0 GN=HABP4
  LogFC HABP4_HUMAN: 1.16
Protein Q5K4L6
  Direction S27A3_HUMAN: Down
  LogFC S27A3_HUMAN: -1.576
Protein Q5T440
  Direction CAF17_HUMAN: Down
  LogFC CAF17_HUMAN: -1.623
Protein Q5TBA9 GN=FRY
  LogFC FRY_HUMAN: 0.4095
Protein Q5VV42
  Direction CDKAL_HUMAN: Down
  LogFC CDKAL_HUMAN: -0.9728
Protein Q5VWZ2 GN=LYPLAL1
  LogFC LYPL1_HUMAN: 2.901
Protein Q5VYK3
  Direction ECM29_HUMAN: Down
  LogFC ECM29_HUMAN: -1.336
Protein Q6IN85
  Direction P4R3A_HUMAN: Down
  LogFC P4R3A_HUMAN: -0.9894
Protein Q6NW34
  Direction NEPRO_HUMAN: Down
  LogFC NEPRO_HUMAN: -2.0501
Protein Q6NZI2
  Direction CAVN1_HUMAN: Down
  LogFC CAVN1_HUMAN: -0.9705
Protein Q6P2Q9
  Direction PRP8_HUMAN: Down
  LogFC PRP8_HUMAN: -0.5767
Protein Q6P996 GN=PDXDC1
  LogFC PDXD1_HUMAN: -1.201
Protein Q6PJG2 GN=MIDEAS
  LogFC MDEAS_HUMAN: -1.368
Protein Q6PL24 GN=TMED8
  LogFC TMED8_HUMAN: 1.071
Protein Q6SJ93 GN=FAM111B
  LogFC F111B_HUMAN: 1.175
Protein Q6VMQ6
  Direction MCAF1_HUMAN: Down
  LogFC MCAF1_HUMAN: -0.5577
Protein Q6XZF7
  Direction DNMBP_HUMAN: Down
  LogFC DNMBP_HUMAN: -1.235
Protein Q6YN16 GN=HSDL2
  LogFC HSDL2_HUMAN: 0.7277
Protein Q6ZNB6
  Direction NFXL1_HUMAN: Down
  LogFC NFXL1_HUMAN: -0.9938
Protein Q6ZRP7
  Direction QSOX2_HUMAN: Down
  LogFC QSOX2_HUMAN: -1.536
Protein Q6ZRS2 GN=SRCAP
  LogFC SRCAP_HUMAN: -1.996
Protein Q6ZUT6
  Direction CCD9B_HUMAN: Down
  LogFC CCD9B_HUMAN: -1.697
Protein Q7KZF4 GN=SND1
  LogFC SND1_HUMAN: 0.6224
Protein Q7L0J3 GN=SV2A
  LogFC SV2A_HUMAN: 0.9586
Protein Q7L576
  Direction CYFP1_HUMAN: Down
  LogFC CYFP1_HUMAN: -0.7029
Protein Q7Z3K3
  Direction POGZ_HUMAN: Down
  LogFC POGZ_HUMAN: -1.413
Protein Q7Z3U7 GN=MON2
  LogFC MON2_HUMAN: -0.4314
Protein Q7Z4S6
  Direction KI21A_HUMAN: Down
  LogFC KI21A_HUMAN: -1.343
Protein Q08AD1
  Direction CAMP2_HUMAN: Down
  LogFC CAMP2_HUMAN: -0.4479
Protein Q8IUE6 GN=H2AC21
  LogFC H2A2B_HUMAN: -0.9956
Protein Q8IUF8 GN=RIOX2
  LogFC RIOX2_HUMAN: -1.969
Protein Q8IUR7 GN=ARMC8
  LogFC ARMC8_HUMAN: -2.228
Protein Q8IW35
  Direction CEP97_HUMAN: Down
  LogFC CEP97_HUMAN: -0.4382
Protein Q8IWT6 GN=LRRC8A
  LogFC LRC8A_HUMAN: -0.7869
Protein Q8IX12
  Direction CCAR1_HUMAN: Down
  LogFC CCAR1_HUMAN: -0.6634
Protein Q8IY67
  Direction RAVR1_HUMAN: Down
  LogFC RAVR1_HUMAN: -2.239
Protein Q8IYB5 GN=SMAP1
  LogFC SMAP1_HUMAN: -0.6906
Protein Q8IYM9
  Direction TRI22_HUMAN: Down
  LogFC TRI22_HUMAN: -2.3161
Protein Q8N1G4 GN=LRRC47
  LogFC LRC47_HUMAN: -0.5175
Protein Q8N2W9 GN=PIAS4
  LogFC PIAS4_HUMAN: 0.8535
Protein Q8N3C0
  Direction ASCC3_HUMAN: Down
  LogFC ASCC3_HUMAN: -0.4031
Protein Q8N3F8
  Direction MILK1_HUMAN: Down
  LogFC MILK1_HUMAN: -1.876
Protein Q8N5I4 GN=DHRSX
  LogFC DHRSX_HUMAN: -1.799
Protein Q8N6H7 GN=ARFGAP2
  LogFC ARFG2_HUMAN: -2.652
Protein Q8N6M3 GN=FITM2
  LogFC FITM2_HUMAN: 1.422
Protein Q8N201
  Direction INT1_HUMAN: Down
  LogFC INT1_HUMAN: -1.252
Protein Q8N684
  Direction CPSF7_HUMAN: Down
  LogFC CPSF7_HUMAN: -0.7682
Protein Q8N884
  Direction CGAS_HUMAN: Down
  LogFC CGAS_HUMAN: -1.895
Protein Q8NAV1 GN=PRPF38A
  LogFC PR38A_HUMAN: 1.096

Source: article PMC11971462, “Generation and validation of a novel multitarget small molecule in glioblastoma” (Cell Death & Disease, 2025)
